Results taken from patent US10087416B2, “Culturing pluripotent stem cells” (Agency for Science, Technology and Research, priority 2013, dated 2018).

What was measured:
Format in all cases: cell-based, human
[1] = system: hESCs; assay: Small molecule treatment of hESCs, expression of pluripotency and lineage markers (qPCR); settings: for Gene expression levels of pluripotency markers NANOG and POU5F1: hESCs treated with individual chemicals for 4 days, FIG. 1C; for Expression level of lineage markers / Expression of NANOG and POU5F1: individual chemicals of combination 22, subcultured onto feeders, harvested after 4 days, FIG. 1F
Protocol: For routine culture of hESCs in TeSR1 (Stem cell technologies), cells were cultured feeder free on matrigel (BD). Cell media was changed daily. The hESCs were subcultured with 1 mg/ml Dispase (Stem cell technologies) every 5-7 days. 3iL hESCs culture medium contains 1 μM of PD0325901 (Sigma), 2 μM of BIO (Sigma), 2 μM of Dorsomorphin (Sigma) and 10 ng/ml human LIF (Millipore) in TeSR1. 3iL media are prepared fresh and stored at 4° C. for not more than 2 weeks. For treatment with 3iL conditions, hESCs cultured in TeSR1 was treated with 3iL 48 hrs post-seeding. The cells are subsequently subcultured on mitomycin C inactivated mouse fibroblast. Cells are dissociated to single cells using TrypLE (Life Technologies). 3iL medium is refreshed daily and cells are subcultured upon confluency. ROCK inhibitor Thiazovivin is added at a final concentration of 1 μM to enhance cell survival for the first few passages. 3iL hESCs used in all the experiments have been cultured for at least 10 passages for adequate conditioning to the new culture condition.
hESCs were dissociated with dispase and treatment starts 48 hrs post seeding. For single chemical and combinatorial chemical treatment, the small molecules are used at the following final concentrations: 0.5 μM A83-01 (Stemgent), 2 μM BIO (Sigma), 3 μM CHIR99021 (Stemgent), 2 μM Dorsomorphin (Sigma), 8 μM Forskolin (Stemgent), 2 μM IDE-1 (Stemgent), 0.5 μM PD153035 (Sigma), 1 μM PD173074 (Sigma), 1 μM PD0325901 (Sigma), 5 μM Pifithrin-α (Sigma) and 1 μM RepSox (Sigma). All small molecules are reconstituted in DMSO. For PI3K pathway inhibition, LY294002 (Sigma) was used at final concentration of 10 μM.

[2] = system: LIF signaling; assay: LIF signaling activity in hESCs (GP130, phosphorylated STAT3, STAT3 responsive genes, NANOG)
Protocol: For expression analysis, total RNA was extracted using the TRIzol reagent (Invitrogen) with chloroform and precipitated with isopropanol. The precipitated RNA was centrifuged at 13000 rpm at 4° C. for 10 min. The RNA pellet was washed with 70% ethanol and subsequently reconstituted with DEPC-treated water (AMBION). DNA contaminants were digested with DNASE I (Ambion) at 37° C. for 30 min. The DNASE I enzyme is heat inactivated at 70° C. for 10 min. RNA concentration was determined with the NanoDrop 2000 (Thermo Scientific). 500 ng of RNA was used for each reverse transcription reaction using the SuperScript II Kit (Invitrogen) to produce the cDNA for subsequent quantitative assays. Quantitative real-time PCR (qPCR) analysis was performed with the SYBR Green Master Mix (KAPA) using the ABI PRISM 7900 sequence detection system. For RNA-Seq library preparation, the total RNA was further purified by column (Purelink RNA Mini kit, Ambion). […] Samples were multiplexed and sequenced single read 76 bp (HiSeq 2000, Illumina).
hESCs were lysed with a lysis buffer (50 mM Tris-HCl, pH 8.0, 150 mM NaCl, 10 μM ZnCl, 0.5% Nonidet P-40, 5% glycerol) supplemented with protease inhibitor cocktail (Merck). Protein concentration was measured with a Bradford assay kit (Bio-Rad). […] After washing with PBST, signals were detected using the Western Blotting Luminol Reagents (Santa Cruz).

[3] = system: 3iL hESCs; assay: Signaling pathway inhibitor treatment of 3iL hESCs (pluripotency markers, colony numbers); settings: treated for 10 days, compared to 3iL hESC control, FIG. 4B
Protocol: The hESC line H1 (WA-01, passage 28) was used for this study. For routine culture of hESCs in TeSR1 (Stem cell technologies), cells were cultured feeder free on matrigel (BD). Cell media was changed daily. The hESCs were subcultured with 1 mg/ml Dispase (Stem cell technologies) every 5-7 days. 3iL hESCs culture medium contains 1 μM of PD0325901 (Sigma), 2 μM of BIO (Sigma), 2 μM of Dorsomorphin (Sigma) and 10 ng/ml human LIF (Millipore) in TeSR1. 3iL media are prepared fresh and stored at 4° C. for not more than 2 weeks. For treatment with 3iL conditions, hESCs cultured in TeSR1 was treated with 3iL 48 hrs post-seeding. The cells are subsequently subcultured on mitomycin C inactivated mouse fibroblast. Cells are dissociated to single cells using TrypLE (Life Technologies). […]
For expression analysis, total RNA was extracted using the TRIzol reagent (Invitrogen) with chloroform and precipitated with isopropanol. […] RNA concentration was determined with the NanoDrop 2000 (Thermo Scientific). 500 ng of RNA was used for each reverse transcription reaction using the SuperScript II Kit (Invitrogen) to produce the cDNA for subsequent quantitative assays. Quantitative real-time PCR (qPCR) analysis was performed with the SYBR Green Master Mix (KAPA) using the ABI PRISM 7900 sequence detection system. […] Samples were multiplexed and sequenced single read 76 bp (HiSeq 2000, Illumina). […]

| Compound | Gene expression levels of pluripotency markers NANOG and POU5F1 [1] | Expression of NANOG and POU5F1 [1] | further results |
| --- | --- | --- | --- |
| O=C1Nc2cc(Br)ccc2/C1=C1/Nc2ccccc2/C1=N\O [BIO, 6-bromoindirubin-3′-oxime] | downregulation | downregulated | Expression level of lineage markers [1]: stronger upregulation of T and GATA6 |
| Cc1cccc(-c2[nH]ncc2-c2ccc3ncccc3n2)n1 [RepSOX] | downregulation |  |  |
| LIF: leukemia inhibitory factor, human recombinant |  |  | NANOG expression levels ([2]; increasing amount of LIF under 3i treatment, 5 days, FIG. 4A): increased with the addition of LIF in a dosage dependent manner; STAT3 phosphorylation ([2]; whole cell extracts, Western blot, FIG. 3H): weakly activates |
| Cc1cccc(-c2nn(C(=S)Nc3ccccc3)cc2-c2ccnc3ccccc23)n1 [A83-01] | downregulation |  | Pluripotency markers NANOG, OCT4 and TRA-1-60 in 3iL hESCs [3]: loss of pluripotency markers |
| CCN(CC)CCCCNc1ncc2cc(-c3cc(OC)cc(OC)c3)c(NC(=O)NC(C)(C)C)nc2n1 [PD173074] |  |  | Pluripotency markers NANOG, OCT4 and TRA-1-60 in 3iL hESCs [3]: loss of pluripotency markers |
| c1cc(-c2cnn3cc(-c4ccc(OCCN5CCCCC5)cc4)cnc23)ccn1 [DOR, 6-[4-(2-Piperidin-1-ylethoxy)phenyl]-3-pyridin-4-ylpyrazolo[1,5-a]pyrimidine] |  | remains in a comparable range |  |
| O=C(NOC[C@H](O)CO)c1ccc(F)c(F)c1Nc1ccc(I)cc1F [PD03] |  | remains in a comparable range | Expression level of lineage markers [1]: increase in the PAX6 transcript |
